From patent publication US7541495B2, “para-alkyl-substituted N-(4-hydroxy-3-methoxy-benzyl)-cinnamamides, pharmaceutical compositions and uses thereof” (Gruenenthal GmbH, priority 2004, dated 2009)

Columns and labels:
[1] = biological target: T1, human vanilloid receptor 1 (VR1/TRPV1) (Homo sapiens, UniProt Q8NER1); assay: FLIPR Ca2+ influx functional study on human vanilloid receptor 1; type: cell-based; conditions: CHO K1 cells transfected with human VR1; for Emax at 10 µM: test substance 10 μM, Ca2+ signal relative to 10 μM capsaicin, read-out: VR1 (Human) (% Stimulation compared with 10 μM CP)
T1 construct: expressed in transfected cells; host or cells: CHO K1 cells (ECACC)
T1 sequence (Q8NER1 whole entry): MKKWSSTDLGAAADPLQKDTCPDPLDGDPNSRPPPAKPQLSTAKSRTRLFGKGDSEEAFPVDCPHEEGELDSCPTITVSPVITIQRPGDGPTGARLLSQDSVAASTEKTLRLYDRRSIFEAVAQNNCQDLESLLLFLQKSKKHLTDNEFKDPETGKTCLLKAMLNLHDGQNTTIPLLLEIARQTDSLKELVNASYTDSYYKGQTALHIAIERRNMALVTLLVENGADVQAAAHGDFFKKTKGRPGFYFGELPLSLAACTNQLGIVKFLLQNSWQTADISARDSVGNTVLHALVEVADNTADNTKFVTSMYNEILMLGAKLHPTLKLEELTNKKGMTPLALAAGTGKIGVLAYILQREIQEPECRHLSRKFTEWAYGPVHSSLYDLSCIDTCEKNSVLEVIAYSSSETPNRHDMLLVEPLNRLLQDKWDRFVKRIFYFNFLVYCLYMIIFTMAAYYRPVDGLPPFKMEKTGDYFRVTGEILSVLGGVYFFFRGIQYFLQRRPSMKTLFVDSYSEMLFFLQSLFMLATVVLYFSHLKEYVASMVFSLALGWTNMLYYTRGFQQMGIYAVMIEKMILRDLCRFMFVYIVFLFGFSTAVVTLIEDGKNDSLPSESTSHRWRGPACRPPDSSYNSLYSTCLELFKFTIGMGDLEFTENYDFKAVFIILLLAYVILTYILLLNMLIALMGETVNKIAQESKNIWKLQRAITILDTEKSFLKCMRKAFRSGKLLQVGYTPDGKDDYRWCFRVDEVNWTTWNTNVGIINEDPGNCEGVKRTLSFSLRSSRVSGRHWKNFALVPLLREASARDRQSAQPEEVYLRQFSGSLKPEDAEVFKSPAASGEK
From the text: (§1) 1. Functional Study on the Vanilloid Receptor 1 (VR1/TRPV1 Receptor)
(§2) The agonist activity or antagonist activity of the substances to be tested on the vanilloid receptor 1 (VR1/TRPV1) of the species human and rat can be determined using the following assay. According to this assay, the Ca^2+ influx through the channel is quantified by means of a Ca^2+-sensitive dye (type Fluo-4, Molecular Probes Europe BV, Leiden, Netherlands) in the Fluorescent Imaging Plate Reader (FLIPR, Molecular Devices, Sunnyvale, USA).
(§3) Chinese hamster ovary cells (CHO K1 cells, European Collection of Cell Cultures (ECACC), England) are stably transfected with the human or rat vanilloid receptor 1 (VR1) gene. For functional studies, these cells are plated out in a density of 25,000 cells/well on poly-D-lysine-coated, black 96-well plates having a clear base (BD Biosciences, Heidelberg, Germany). The cells are incubated overnight at 37° C. and 5% CO2 in culture medium (Nutrient Mixture Ham's F12, Gibco Invitrogen GmbH, Karlsruhe, Germany) with 10% v/v of FBS (fetal bovine serum, Gibco Invitrogen GmbH, Karlsruhe, Germany) and 18 μg/ml of L-proline (Gibco Invitrogen GmbH, Karlsruhe, Germany). On the following day, the cells are charged with 2 μM of Fluo-4 and 0.01% v/v of Pluronic F127 (Molecular Probes Europe BV, Leiden, Netherlands) in HBSS buffer solution (Hank's buffered saline solution, Gibco Invitrogen GmbH, Karlsruhe, Germany) for 30 minutes at 37° C. The plates are then washed three times with HBSS buffer solution and, after incubation for a further 15 minutes at room temperature, used in the FLIPR assay for Ca^2+ measurement. The Ca^2+-dependent fluorescence is measured before and after the addition of test substances (λex=488 nm, λem=540 nm). Quantification is effected by measuring the highest fluorescence intensity (FC, fluorescence counts) over time.
(§4) The FLIPR protocol consists of two additions of test substance. Test substances (10 μM) are first pipetted onto the cells and the Ca^2+ influx is compared with the control (capsaicin 10 μM). This gives the percentage activation, based on the Ca^2+ signal after the addition of 10 μM of capsaicin (CP). After 5 minutes' incubation, 100 nM of capsaicin are applied and the influx of Ca^2+ is likewise determined. Desensitizing agonists and antagonists lead to suppression of the Ca^2+ influx. The percentage inhibition compared with the maximum achievable inhibition is calculated using 10 μM of capsaicin. In order to determine the EC50 values, the substances are added in various concentrations. Determinations are carried out in triplicate (n=3) and these are repeated in at least three independent experiments (N=4).
(§5) The agonist activity or antagonist activity was determined on human and rat vanilloid receptor 1 (VR1/TRPV1 receptor) using the above-described FLIPR assay.

[2] = biological target: T2, rat vanilloid receptor 1 (VR1/TRPV1) (Rattus norvegicus, UniProt O35433); assay: FLIPR Ca2+ influx functional study on rat vanilloid receptor 1; type: cell-based; conditions: CHO K1 cells transfected with rat VR1; for Emax at 10 µM: test substance 10 μM, Ca2+ signal relative to 10 μM capsaicin, read-out: VR1 (Rat) (% Stimulation compared with 10 μM CP)
T2 construct: expressed in transfected cells; host or cells: CHO K1 cells (ECACC)
T2 sequence (O35433 whole entry): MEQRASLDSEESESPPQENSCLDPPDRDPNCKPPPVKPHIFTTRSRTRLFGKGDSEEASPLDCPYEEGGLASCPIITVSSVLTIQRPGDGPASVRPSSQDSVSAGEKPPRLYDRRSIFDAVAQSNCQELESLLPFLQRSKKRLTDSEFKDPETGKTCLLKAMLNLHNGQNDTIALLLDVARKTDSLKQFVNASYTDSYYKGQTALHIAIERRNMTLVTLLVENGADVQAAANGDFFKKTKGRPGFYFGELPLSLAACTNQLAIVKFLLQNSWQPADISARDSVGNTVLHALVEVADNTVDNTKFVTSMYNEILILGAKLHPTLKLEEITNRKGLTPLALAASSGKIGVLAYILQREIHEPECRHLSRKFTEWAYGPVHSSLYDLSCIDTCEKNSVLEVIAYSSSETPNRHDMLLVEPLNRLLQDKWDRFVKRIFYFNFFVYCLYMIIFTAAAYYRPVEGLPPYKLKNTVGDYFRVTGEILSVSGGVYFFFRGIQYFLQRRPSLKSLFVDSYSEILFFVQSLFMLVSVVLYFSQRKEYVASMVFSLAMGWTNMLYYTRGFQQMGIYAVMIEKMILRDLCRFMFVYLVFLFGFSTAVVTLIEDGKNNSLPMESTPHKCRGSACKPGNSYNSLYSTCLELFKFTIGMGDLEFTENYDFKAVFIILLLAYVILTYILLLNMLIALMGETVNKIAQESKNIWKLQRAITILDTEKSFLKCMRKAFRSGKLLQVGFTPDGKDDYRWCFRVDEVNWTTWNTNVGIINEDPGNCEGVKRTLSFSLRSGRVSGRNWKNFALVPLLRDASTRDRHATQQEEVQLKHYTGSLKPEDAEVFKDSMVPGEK
From the text: as §1, §2, §3, §4, §5

[3] = test system: phenylquinone-induced writhing in mice; assay: Phenylquinone-induced writhing test on mice; type: in vivo, male NMRI mice; conditions: phenylquinone i.p. 10 min after dose
Description: 2. Analgesic Test Using the Writhing Test on Mice
The analysis of analgesic activity in the compounds of the invention of formula is carried out using the phenylquinone-induced writhing assay in mice, modified as described in the article by I. C. Hendershot and J. Forsaith (1959) in J. Pharmacol. Exp. Ther. 125, 237-240. The relevant description is incorporated herein by reference and is to be regarded as part of the present disclosure.
For the present purpose, male NMRI mice are used having a weight of from 25 to 30 g. Groups of 10 animals per substance dose received, 10 minutes after an intravenous dose of test substances, an intraperitoneal administration of 0.3 ml/mouse of a 0.02% strength aqueous solution of phenylquinone(phenylbenzoquinone, obtainable from Sigma, Deisenhofen; solution produced with the addition of 5% of ethanol and storage in a water bath at 45° C.). The animals were placed individually in observation cages. Using a pushbutton counter, the number of pain-induced stretching movements (so-called writhing reactions=straightening of the body accompanied by stretching of the rear extremities) was counted over a period of from 5 to 20 minutes following the administration of phenylquinone. The control is provided by animals receiving only physiological saline. […]

Row | Emax at 10 µM [1] | Emax at 10 µM [2] | EC50 ([1]; FLIPR Ca2+ influx) | EC50 ([2]; FLIPR Ca2+ influx) | Structure (SMILES) | Reduction of Nociceptive Behavior Relative to Controls ([3]; 0.1 mg/kg i.v.) | Reduction of Nociceptive Behavior Relative to Controls ([3]; 0.316 mg/kg i.v.)
1 | 56% | 92% | – | – | COc1cc(CNC(=O)/C=C/c2ccc(C)cc2)ccc1O [Example 1, para-methyl-trans-N-(4-hydroxy-3-methoxybenzyl)-cinnamic acid amide] | – | –
2 | 110% | 132% | – | – | CCCCc1ccc(/C=C/C(=O)NCc2ccc(O)c(OC)c2)cc1 [Example 8, para-butyl-trans-N-(4-hydroxy-3-methoxybenzyl)-cinnamic acid amide] | – | –
3 | 97% | 126% | – | – | CCCCCCCCc1ccc(/C=C/C(=O)NCc2ccc(O)c(OC)c2)cc1 [Example 9, para-octyl-trans-N-(4-hydroxy-3-methoxybenzyl)-cinnamic acid amide] | 47% | –

Second part, the molecule before the results:

Row | Structure (SMILES) | Emax at 10 µM [1] | Emax at 10 µM [2] | EC50 ([1]; FLIPR Ca2+ influx) | EC50 ([2]; FLIPR Ca2+ influx) | Reduction of Nociceptive Behavior Relative to Controls ([3]; 0.1 mg/kg i.v.) | Reduction of Nociceptive Behavior Relative to Controls ([3]; 0.316 mg/kg i.v.)
4 | CCc1ccc(/C=C/C(=O)NCc2ccc(O)c(OC)c2)cc1 [Example 2, para-ethyl-trans-N-(4-hydroxy-3-methoxybenzyl)-cinnamic acid amide] | 71% | 84% | – | – | 54% | –
5 | COc1cc(CNC(=O)/C=C/c2ccc(C(C)C)cc2)ccc1O [Example 3, para-isopropyl-trans-N-(4-hydroxy-3-methoxybenzyl)-cinnamic acid amide] | 71% | 97% | – | – | 52% | –
6 | COc1cc(CNC(=O)/C=C/c2ccc(C(C)(C)C)cc2)ccc1O [Example 4, para-tert.-Butyl-trans-N-(4-hydroxy-3-methoxybenzyl)-cinnamic acid amide] | 115% | 106% | 0.147 nM | 0.129 nM | 63% | –
7 | CCCc1ccc(/C=C/C(=O)NCc2ccc(O)c(OC)c2)cc1 [Example 5, para-propyl-trans-N-(4-hydroxy-3-methoxybenzyl)-cinnamic acid amide] | 102% | 119% | – | – | – | 55%
8 | COc1cc(CNC(=O)/C=C/c2ccc(CC(C)C)cc2)ccc1O [Example 6, para-iso-butyl-trans-N-(4-hydroxy-3-methoxybenzyl)-cinnamic acid amide] | 103% | 141% | – | – | 70% | –
9 | COc1cc(CNC(=O)/C=C/c2ccc(CC(C)(C)C)cc2)ccc1O [Example 7, para-neo-pentyl-trans-N-(4-hydroxy-3-methoxybenzyl)-cinnamic acid amide] | 102% | 142% | – | – | – | –
